How the values were obtained:
[1] = tested on: [32P]-PSDP in human PMN; assay: PSDP remodeling in [32P]-labeled human PMN (TLC, phosphoimaging); assay type: cell-based
Protocol: Panel A: Scheme for aspirin-triggered 15-epi-LXA4 biosynthesis and structure of the stable analog, 15-epi-16-para-fluoro-phenoxy-LXA4-methyl ester (15-epi-LXa) (left), and hypothetical scheme for PIPP signaling (right). PMN were labeled with [γ-^32P]-ATP and incubated (12.5×10^6 ml^−1, 37° C.) with LTB4 (●, 100 nM), 15-epi-LXa (♦, 100 nM), vehicle (□, 0.1% ethanol) or 15-epi-LXa (100 nM, 5 min) followed by LTB4 (▴, 100 nM). Non-saponifiable lipids were extracted and separated by TLC, and [^32P]-incorporation was quantitated by phosphoimaging (see Methods). Values are densitometric measurements.
Peripheral venous blood (˜180 ml) was obtained by venipuncture from healthy volunteers who denied taking any medication for at least two weeks and had given written informed consent to a protocol approved by Brighamn and Women's Hospital's Human Research Committee. PMN were isolated from whole blood and steady state labeled with [γ-^32P]ATP (40 μCiml^−1, 90 min, 37° C.) as in (Levy, B. D., Petasis, N. A., and Serhan, C. N. (1997) Polyisoprenyl phosphates in intracellular signalling. Nature 389, 985-989). Labeled PMN were resuspended (20×10^6 ml^−1 PBS with 1 mM CaCl2, pH 7.40) and exposed to LTB4 (100 nM), 15-epi-LXa (100 nM) or vehicle (0.1% EtOH) for 0 to 300 seconds (37° C.). From each incubation, aliquots were removed at indicated intervals to determine the radiolabeling of nonsaponifiable lipids (10-12×10^6 PMN) and PLD activity (1-1.25×10^6 PMN). Materials present in each incubation were saponified, extracted and separated by TLC with phosphoimaging (model 425E and integration software; Molecular Dynamics), which was used for PSDP mass determination as in ref 22.

[2] = tested on: PLD activity in human PMN; assay: LTB4-stimulated PLD activity in lysates of treated human PMN; assay type: cell-based
Protocol: (§1) Cell lysates (2-5×10^6 cells, 90-130 μg protein) were prepared from the same aliquots of PMN used to determine PSDP (see FIG. 1 & Methods), warmed to 37° C. and exposed to PC (2 mM in 50 mM Tris-HCl, pH 7.5, plus 30 mM CaCl2). Reactions were terminated at 30 sec intervals and choline release was quantitated (26). […] Superoxide anion generation by freshly isolated human PMN was determined (10 min, 37° C.) for LTB4 (100 nM), 15-epi-LXa (100 nM), and increasing concentrations of 15-epi-LXa (1-100 nM, 5 min, 37° C.) followed by LTB4 (100 nM, 10 min, 37° C.). Values reported in Panel C are the mean±S.E. for n=3 separate PMN donors. *P<0.05 by Student's t-test.
Peripheral venous blood (˜180 ml) was obtained by venipuncture from healthy volunteers who denied taking any medication for at least two weeks and had given written informed consent to a protocol approved by Brighamn and Women's Hospital's Human Research Committee. […]
(§2) PMN lysates (90-130 μg protein), purified phospholipase D (3-30 units) (EC 3.1.4.4., Sigma Chemical Co.) or recombinant hPLD1b were warmed (37° C. for mammalian enzyme and 30° C. for cabbage, 3 min) and exposed to PSDP, PSMP or FDP (10-1000 nM, 5 min, 37° C. or 30° C.) followed by PC (0.5 to 5 mM) in Tris-HCl (50 mM pH 7.5) with CaCl2 (30 mM). […] Choline release was quantitated as in ref 26.

[3] = tested on: human PMN; assay: LTB4-stimulated superoxide anion generation by human PMN (cytochrome c); assay type: cell-based; details: 15-epi-LXa 1-100 nM, 5 min, then LTB4 100 nM, 10 min, 37° C.
Protocol: as §1
Freshly isolated human PMN (1-3×10^6 PMN/ml HBSS+1.6 mM CaCl2) were incubated (5 min, 37° C.) in the presence of 15-epi-LXa (1-100 nM) or vehicle (0.1% ethanol), and then exposed (10 min) to LTB4 (100 nM) in the presence of cytochrome c (7 mg/ml). Superoxide anion generation was determined as in ref 22.

[4] = tested on: cabbage phospholipase D (cPLD, EC 3.1.4.4); assay: Purified cabbage PLD activity (choline release from PC), enzyme kinetics with lipids; assay type: biochemical; details: for Ki: cPLD 3 u/reaction, 30° C., PC 0.5-5 mM, Ki from Slope = Km/Vm (1 + [I]/Ki); for Vm app: cPLD in presence of the lipid, enzyme alone Vm 0.29 (nmoles/sec); for inhibition of cPLD (in words): compared with PSDP
Protocol: Reactions were terminated at 30 sec intervals and choline release quantitated as in FIG. 2 legend. Values represent the mean for n≧4 for reactions in the absence of PSDP (●, r^2=0.963) and the mean for n≧3 with PSDP (Δ, r^2=0.995, 0.971 and 0.953 for 10, 100 and 1000 nM, respectively). CS Chem3D Pro software (CambridgeSoft Corp., Cambridge, Mass.) was used to calculate an energy minimized model of PSDP (inset).
(§3) PMN lysates (90-130 μg protein), purified phospholipase D (3-30 units) (EC 3.1.4.4., Sigma Chemical Co.) or recombinant hPLD1b were warmed (37° C. for mammalian enzyme and 30° C. for cabbage, 3 min) and exposed to PSDP, PSMP or FDP (10-1000 nM, 5 min, 37° C. or 30° C.) followed by PC (0.5 to 5 mM) in Tris-HCl (50 mM pH 7.5) with CaCl2 (30 mM). Reactions were terminated at 30 second intervals (0-90 seconds) with Tris-HCl (1 M) plus EDTA (50 mM). Choline release was quantitated as in ref 26.

[5] = biological target: T1, recombinant human PLD1b (rhPLD1b) (Homo sapiens, UniProt Q13393); assay: Recombinant human PLD1b activity (choline release from PC), enzyme kinetics with PSDP; assay type: biochemical
T1 construct: made in house; host or cells: Spodoptera frugiperda Sf9 cells, recombinant baculovirus (pACGHLT transfer vector)
T1 sequence (Q13393 1-1036 isoform Q13393-2): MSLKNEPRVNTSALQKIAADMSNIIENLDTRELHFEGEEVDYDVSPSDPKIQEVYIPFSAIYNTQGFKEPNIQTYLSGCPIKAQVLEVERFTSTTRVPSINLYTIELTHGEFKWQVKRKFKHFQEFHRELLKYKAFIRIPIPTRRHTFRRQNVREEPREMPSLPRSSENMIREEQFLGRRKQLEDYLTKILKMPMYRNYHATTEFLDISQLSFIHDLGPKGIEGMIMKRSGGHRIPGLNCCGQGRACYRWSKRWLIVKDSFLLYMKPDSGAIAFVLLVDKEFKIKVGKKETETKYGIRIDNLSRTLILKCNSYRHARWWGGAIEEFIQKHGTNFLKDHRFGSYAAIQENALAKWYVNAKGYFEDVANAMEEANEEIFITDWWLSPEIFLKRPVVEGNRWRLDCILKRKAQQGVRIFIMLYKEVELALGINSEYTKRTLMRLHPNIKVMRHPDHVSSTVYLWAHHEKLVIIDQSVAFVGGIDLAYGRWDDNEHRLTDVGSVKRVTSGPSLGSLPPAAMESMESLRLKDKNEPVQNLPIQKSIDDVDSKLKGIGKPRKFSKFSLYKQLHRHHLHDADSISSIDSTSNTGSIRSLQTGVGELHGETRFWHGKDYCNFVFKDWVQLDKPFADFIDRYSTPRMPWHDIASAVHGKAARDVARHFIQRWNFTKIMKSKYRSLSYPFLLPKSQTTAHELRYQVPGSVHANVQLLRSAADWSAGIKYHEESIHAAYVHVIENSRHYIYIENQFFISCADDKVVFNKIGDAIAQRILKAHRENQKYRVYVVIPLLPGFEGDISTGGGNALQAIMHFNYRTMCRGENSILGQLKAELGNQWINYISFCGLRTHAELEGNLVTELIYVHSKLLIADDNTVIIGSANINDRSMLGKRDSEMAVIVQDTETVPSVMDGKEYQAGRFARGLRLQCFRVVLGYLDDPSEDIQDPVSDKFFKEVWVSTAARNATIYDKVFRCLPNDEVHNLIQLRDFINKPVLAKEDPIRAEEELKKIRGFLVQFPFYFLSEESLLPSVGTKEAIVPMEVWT
Protocol: Spodoptera frugiperda (Sf9) cells were cultured in suspension at 2×10^5 to 2×10^6 cells/ml TC 100 medium supplemented with 10% fetal calf serum (Gibco). A cDNA encoding human PLD1b (cloned from placental tissue) was inserted into the transfer vector pACGHLT (Pharmingen) downstream of, and in frame with, vector sequences encoding glutathione-S-transferase (GST), hexahistidine, a protein kinase A phosphorylation site and a thrombin cleavage site. The GST-hPLD1b construct was cotransfected into Sf9 cells with linearized, polyhedrin-minus (PH-), AcMNPV DNA, Bac-N-Blue, according to the supplier's instructions (Invitrogen). Homologous recombination between linearized virus and the transfer vector restored the function of essential viral gene ORF1629 to yield infectious, recombinant virus. After two rounds of plaque-purification, recombinant virus was amplified by large scale infections of Sf9 cells until a titer of 8×10^7 pfu/ml was obtained. […]
as §2

[6] = tested on: PLD activity in PMN lysates; assay: PLD activity in PMN lysates after LTB4, lipid added to the lysate; assay type: biochemical, human; details: 100 nM added to PMN lysates 60 sec after LTB4 100 nM
Protocol: Lysates were generated from cells at rest or after exposure to agonist using a lysis buffer comprised of 0.1 M Hepes (pH 7.4), 0.7 mM sodium orthovanadate, 10 μM p-nitrophenylphosphate, 10 mM EGTA, 5.5% triton X-100, 0.5 M β-glycerophosphate, 10 mM phenylmethylsulfonylfluoride, 0.1 mM ammonium molybdate, 12 mM DFP, 5 μgml^−1 leupeptin, 2 μgml^−1 aprotinin and 7 μgml^−1 pepstatin A (as in ref 25) and utilized for bioassay.
as §3
Because PLD activation occurs in vivo in the presence of many cofactors which modulate its activity, it was also determined the impact of PSDP on PLD activity in PMN lysates. Sixty seconds following LTB4, PSDP levels decreased (28%, FIG. 1) and PLD activity was maximal (FIG. 2).

[7] = effect on LTB4-stimulated changes in PSDP

CCCCC[C@H](O)/C=C/C=C\C=C\C=C\[C@@H](O)[C@@H](O)CCCC(=O)O [LXA4, lipoxin A4]
rank order of potency [1, 7]: 15-epi-LXa>16-phenoxy-LXA4>LXA4

COC(=O)CCC[C@H](O)[C@H](O)/C=C/C=C/C=C\C=C\[C@H](O)COc1ccc(F)cc1 [15-epi-LXa, 15-epi-16-para-fluoro-phenoxy-LXA4-methyl ester]
inhibition of LTB4-stimulated PLD activity ([2]; 15-epi-LXa 100 nM, 5 min, then LTB4 100 nM, at 60 sec): ~81%
effect alone on rate of PIPP remodeling ([1]; 100 nM, without LTB4): did not affect the rate of PIPP remodeling
increase in [32P]-PSDP ([1]; 15-epi-LXa 100 nM, 5 min, then equimolar LTB4 100 nM, at 60 sec): ~72%
potency relative to 16-phenoxy-LXA4 and LXA4 [1, 7]: 1-2 orders of magnitude
rank order of potency [1, 7]: 15-epi-LXa>16-phenoxy-LXA4>LXA4
inhibition of LTB4-stimulated O2- generation (in words) [3]: potently inhibited

CC(C)=CCC/C(C)=C/CC/C(C)=C/C1C(COP(=O)(O)O)C1(C)CC/C=C(\C)CCC=C(C)C (stereo in doubt) [Presqualene monophosphate, presqualene monophosphate]
loss in inhibitory potency compared to PSDP ([4]; cPLD): greater than 100 fold
Ki [4]: 3210 nM
Vm app [4]: 0.36

COC(=O)CCC[C@H](O)[C@H](O)/C=C/C=C/C=C\C=C\[C@H](O)COc1ccccc1 [16-phenoxy-LXA4, 16-phenoxy-LXA4-methyl ester]
rank order of potency [1, 7]: 15-epi-LXa>16-phenoxy-LXA4>LXA4

CCCCC/C=C\C[C@@H](O)/C=C/C=C/C=C\[C@@H](O)CCCC(=O)O [LTB4, leukotriene B4]
time of maximal increase in PLD activity ([2]; LTB4 100 nM): ≤ 60 s
decrease in [32P]-PSDP ([1]; LTB4 100 nM, within 60 sec, 37° C.): 28%

CC(C)=CCC/C(C)=C/CC/C(C)=C/C1C(COP(=O)(O)OP(=O)(O)O)C1(C)CC/C=C(\C)CCC=C(C)C (stereo in doubt) [Presqualene diphosphate, presqualene diphosphate]
mode of inhibition (Lineweaver-burk analyses) ([4]; PSDP 10 to 1000 nM): competitive inhibition model
Ki [4]: 20 nM
Vm app [4]: 0.25
Ki ([5]; rhPLD1b 0.3 u/reaction, 37° C.): 6 nM
Vm app ([5]; rhPLD1b in presence of the lipid, enzyme alone Vm 0.36 (nmoles/sec)): 0.03
inhibition of PLD activity [6]: 89.5+/−9.7%

phosphatidic acid
Vm app [4]: 0.43
inhibition of cPLD (in words) [4]: Comparable inhibition was not evident

CC(C)=CCC/C(C)=C/CC/C(C)=C/CC/C=C(\C)CC/C=C(\C)CCC=C(C)C [Squalene]
Vm app [4]: 0.46
inhibition of cPLD (in words) [4]: Comparable inhibition was not evident

— patent US6864288B2, “Regulation of phospholipase D activity” (Brigham & Women's Hospital, Inc., priority 1999, dated 2005)
